Measured values as given in PubChem BioAssay (NCI).
“And” between values parts separate entries of the source, which are not always exact repeats. Equal values may be shown once.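 A five-concentration, 48-hour dose response in 96-well plates underlies each endpoint, interpolated linearly between surrounding concentrations. GI50 marks 50% less growth. TGI: total growth inhibition.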

How the values were obtained:
Test in all cases: NCI-60 cell line screen, 48 h
TK-10 renal = test system: TK-10 renal
U251 CNS = test system: U251 CNS
A549 NSCLC = test system: A549 NSCLC
HOP-92 NSCLC = test system: HOP-92 NSCLC
SW-620 colon = test system: SW-620 colon
ACHN renal = test system: ACHN renal
SN12C renal = test system: SN12C renal
IGROV1 ovarian = test system: IGROV1 ovarian
HL-60(TB) leukemia = test system: HL-60(TB) leukemia
UACC-257 melanoma = test system: UACC-257 melanoma

Compound	TGI (TK-10 renal) [µM]	TGI (U251 CNS)	TGI (A549 NSCLC) [µM]	TGI (HOP-92 NSCLC)	TGI (SW-620 colon)	TGI (ACHN renal) [µM]	TGI (SN12C renal) [µM]	TGI (IGROV1 ovarian)	TGI (HL-60(TB) leukemia)	TGI (UACC-257 melanoma)	GI50 (TK-10 renal) [µM]	GI50 (U251 CNS) [µM]	GI50 (A549 NSCLC) [µM]	GI50 (HOP-92 NSCLC)	GI50 (SW-620 colon) [µM]	GI50 (ACHN renal) [µM]	GI50 (SN12C renal) [µM]	GI50 (IGROV1 ovarian)	GI50 (HL-60(TB) leukemia) [µM]	GI50 (UACC-257 melanoma)
CCOC(=O)/C(C)=C(/O)C(=O)OCC	> 100	> 100 µM	> 100	> 100 µM	> 100 µM	> 100	> 100	> 100 µM	> 100 µM	> 100 µM										
COc1cc2[nH]c3c(c2cc1OC)CCN[C@]31CC[C@]2(CC3c4c(cc(OC)c(O)c42)CCN3C)C[C@H]1OC (some centres undefined)	51.1	36 µM	68.8	75.7 µM	53.3 µM	62.4	62.8	80.6 µM	24.6 µM	37.1 µM										
CC1=C(/C=C/Cl)CC(Cl)C(C)(Cl)C1 (centres undefined)	> 100	> 100 µM	> 100	> 100 µM	> 100 µM	> 100	> 100	> 100 µM	60.5 µM	> 100 µM										
COc1cc(/C=C/c2ccc(OC)c(O)c2)cc(OC)c1	91.4	15 µM	33.3	29.4 µM	13.7 µM	41.2	30.3	86.4 µM	4.43 µM	24.9 µM										
C=CCCCCC/C=C\[C@@H](O)C#CC#C/C=C/CO	> 100	> 100 µM	> 100	> 100 µM	> 100 µM	> 100	> 100	> 100 µM	27.8 µM	> 100 µM	> 100	38.7	> 100	> 100 µM	48.2	> 100	57.5	23.5 µM	11.2	> 100 µM
COc1cc(Cc2nccc3cc(OC)c(OC)cc23)c(C(C)=O)cc1OC	341	300 µM and > 750 µM	> 750	267 µM and > 750 µM	300 µM and > 750 µM	429	30	300 µM and 440 µM	130 µM and > 750 µM	116 µM and 144 µM			> 750	99.3 µM and > 750 µM				51.4 µM and 92.7 µM	> 750	55 µM and 49 µM and 35.4 µM
CC(C)c1c(O)c(O)c2c(c1O)C(=O)C(O)=C1C(C)(C)CCC[C@@]12C	15.1	11.1 µM	14.3	5.63 µM	11.8 µM	11.3	18.7	13.9 µM	4.78 µM	8.61 µM										
NC(=O)c1cc(Cl)ccc1NC(=O)/C=C/c1ccccc1	> 95.1	> 35.4 µM	> 100	> 43 µM	> 100 µM	> 100	> 100	> 100 µM	4.4 µM	> 100 µM	7.31	2.95	4.18	9.88 µM	2.36	4.75	5.47	3.03 µM	1.28	> 38.8 µM
[N-]=[N+]=C1C(=O)NN=C1c1ccccc1	> 100	> 100 µM	> 100	> 100 µM	> 100 µM	> 100	> 100	> 100 µM	> 100 µM	> 100 µM										
COc1ccc(-c2[nH]c3ccc(OC)cc3c2/C=C(\C#N)S(=O)(=O)c2ccccc2)cc1	> 100	> 100 µM	> 68.3	6.81 µM	> 100 µM	> 100	> 100	> 45.9 µM		> 46.5 µM	4.56	0.557	2.01	0.692 µM	0.534	1.79	2.2	3.76 µM	0.812	7.06 µM
CCCC(CCC)NCC(O)c1cc(-c2ccc(C(F)(F)F)cc2)nc(C(F)(F)F)c1 (centres undefined)	3.44	3.22 µM	3.28	2.87 µM	3.05 µM	3.16	3.2	4.09 µM	3.97 µM	3.45 µM	1.98	1.74	1.79	1.43 µM	1.57	1.63	1.69	2.09 µM	2.11	1.8 µM
Cc1cc2nc(C=C(C(F)(F)F)C(F)(F)F)oc2cc1C	5.16	> 10 µM	> 10	> 10 µM	3.42 µM	> 10	5.1	8.08 µM	5.03 µM	> 10 µM										
CC/C=C\C[C@H](O)C/C=C1/C(=O)C=C[C@@H]1C/C=C\CCCC(=O)OC	9.13	4.07 µM	7.63	8.67 µM	11.3 µM	4.27	10.2	8.71 µM	7.07 µM	7.09 µM	3.29	1.63	2.78	3.22 µM	0.784	2	2.55	3.05 µM	1.74	2.36 µM
CC1=CC(C)(C)N=C2SC(c3ccc(N)cc3)=NN12	> 100	> 100 µM	> 100	> 100 µM	> 61.2 µM	> 100	> 100	> 100 µM	> 53 µM	> 100 µM										
CC1=[N+]([O-])c2ccccc2C(=O)C1=O	> 100	> 100 µM	> 100	> 100 µM	> 100 µM	> 100	> 100	> 100 µM	> 100 µM	> 100 µM										
CN1CCN(CCCNc2nc3ccc(Oc4ccc(NC(=O)Nc5cc(C(F)(F)F)ccc5F)cc4)cc3[nH]2)CC1	9.07	7.38 µM	8.08	12.1 µM	7.79 µM	> 25	11.2	> 23.9 µM	10.3 µM	7.93 µM	3.93	3.86	4.31	2.91 µM	4.35	17.5	4.77	9.62 µM	5.2	4.02 µM
COC(=O)C12CC3CC(CC(C(=O)O)(C3)C1)C2	> 100	> 100 µM	> 100	> 100 µM	> 100 µM	> 100	> 100	> 100 µM	> 100 µM	> 100 µM										
